Where two headings read alike, the source gives them in different places.
Tests used:
[1] = system: cerebral lipid peroxidation; assay: TBARS assay, SNP-induced lipid peroxidation in brain homogenate; format: biochemical, mouse; details: for Concentrations effective in reversing SNP-induced oxidative damage (TBARS): tested up to 500 μM
Description: (§1) Brains from mice of both sexes were used for in vitro assays, each performed in duplicate across three independent experiments (n = 3), conducted on different days.
The brain tissues were homogenized in a 50 mM Tris-HCl buffer at pH 7.4, using a 1:10 ratio (w/v). The freshly prepared homogenate was then centrifuged at 900g for 10 min, yielding a low-speed supernatant (S1). Lipid peroxidation was evaluated using the TBARS method as previously described. Lipid peroxidation was induced by 0.3 mM SNP. A 100 μL aliquot of S1 was incubated for 1 h at 37 °C in the presence of the compounds 3A, 3B, and 3C at concentrations ranging from 25 to 500 μM, and SNP or water (to control). The color reaction was initiated by adding 500 μL of a 0.8% thiobarbituric acid (TBA) solution, followed by 200 μL of 8.1% sodium dodecyl sulfate (SDS) and 500 μL of acetic acid (pH 3.4). The reaction mixture was incubated at 95 °C for 1 h. The absorbance was measured using a spectrophotometer at a wavelength of 532 nm. Trolox (100 μM), an antioxidant analogous to vitamin E, served as a positive control. The results were reported as nmol TBARS per gram of tissue. A parallel TBARS experiment was also conducted using a standard alkyl aryl selenide (2-((phenylselanyl)-methyl)-pyridine), dissolved in DMSO at the same concentrations tested, ranging from 25 to 500 μM.

[2] = cited from earlier work
[3] = set-up: method as in Prigol and colleagues; details: ref Prigol and colleagues; cited from earlier work
[4] = set-up: method as in Prigol and colleagues; details: 500 mg/kg dissolved in oil, per oral; ref Prigol and colleagues; cited from earlier work
MAO-A = target: T1, MAO-A (Mus musculus, UniProt Q64133); assay: Cerebral MAO-A activity, mitochondria-enriched mouse brain fraction (kynuramine, fluorimetric); format: biochemical
T1 construct: Mitochondria-enriched brain preparations were obtained in accordance with established methodology outlined in literature; from tissue; host or cells: mouse brain, mitochondria-enriched fraction
T1 sequence (Q64133 1-526): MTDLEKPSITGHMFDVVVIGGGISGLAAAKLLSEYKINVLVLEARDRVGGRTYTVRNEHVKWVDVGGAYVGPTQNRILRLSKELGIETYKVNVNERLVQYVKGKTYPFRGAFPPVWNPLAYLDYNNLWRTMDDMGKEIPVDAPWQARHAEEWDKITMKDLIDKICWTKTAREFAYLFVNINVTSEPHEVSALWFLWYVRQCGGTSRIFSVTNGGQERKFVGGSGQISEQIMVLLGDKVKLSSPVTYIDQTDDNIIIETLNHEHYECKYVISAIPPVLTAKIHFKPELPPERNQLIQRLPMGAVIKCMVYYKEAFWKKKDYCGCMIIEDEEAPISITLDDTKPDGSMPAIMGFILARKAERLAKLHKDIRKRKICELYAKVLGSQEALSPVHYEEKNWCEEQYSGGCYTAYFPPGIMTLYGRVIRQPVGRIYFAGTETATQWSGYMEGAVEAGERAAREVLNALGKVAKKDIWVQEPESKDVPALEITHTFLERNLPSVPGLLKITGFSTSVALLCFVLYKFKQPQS
Description: (§2) Mitochondria-enriched brain preparations were obtained in accordance with established methodology outlined in literature. The homogenate was prepared using the mouse brain tissue and a homogenization buffer (Na2PO4/KH2PO4/sucrose) at a ratio of 1:4 (w/v). The homogenate was centrifuged at 900g at 4 °C for 5 min. The resulting supernatant was separated and subjected to centrifugation at 12,500g for 15 min. The resulting pellet was resuspended in the homogenization buffer and subjected to a further round of centrifugation under identical conditions. Finally, the mitochondrial pellet obtained was reconstituted in an assay buffer solution (Na2PO4/KH2PO4/KCl). Protein concentration was estimated using the Bradford method and standardized as 1 mg/mL for the experiments.
(§3) MAO activity was assessed following the method outlined by Krajl, with some modifications by Matsumoto. Briefly, a 100 μL aliquot of the mitochondria-rich fraction was incubated at 37 °C for 5 min with specific MAO inhibitors: clorgyline (250 nM, a MAO-A inhibitor), or pargyline (250 nM, a MAO-B inhibitor). Then, 10 μL of each compound was introduced at varying concentrations (25–200 μM). Water (10 μL) was used in the control tubes. Afterward, the substrate, 20 μL of kynuramine dihydrobromide, was added to achieve a final concentration of 90 μM for MAO-A and 60 μM for MAO-B. The samples were incubated at 37 °C for 30 min. The reaction was halted by the addition of 300 μL of 10% trichloroacetic acid (TCA). After centrifuging at 16,000g for 15 min, an aliquot of 800 μL of the supernatant was mixed with 1 mL of 1 M sodium hydroxide (NaOH). The samples were measured using a fluorimeter with excitation at 315 nm and emission at 380 nm.

MAO-B = target: T2, MAO-B (Mus musculus, UniProt Q8BW75); assay: Cerebral MAO-B activity, mitochondria-enriched mouse brain fraction (kynuramine, fluorimetric); format: biochemical
T2 construct: Mitochondria-enriched brain preparations were obtained in accordance with established methodology outlined in literature; from tissue; host or cells: mouse brain, mitochondria-enriched fraction
T2 sequence (Q8BW75 1-520): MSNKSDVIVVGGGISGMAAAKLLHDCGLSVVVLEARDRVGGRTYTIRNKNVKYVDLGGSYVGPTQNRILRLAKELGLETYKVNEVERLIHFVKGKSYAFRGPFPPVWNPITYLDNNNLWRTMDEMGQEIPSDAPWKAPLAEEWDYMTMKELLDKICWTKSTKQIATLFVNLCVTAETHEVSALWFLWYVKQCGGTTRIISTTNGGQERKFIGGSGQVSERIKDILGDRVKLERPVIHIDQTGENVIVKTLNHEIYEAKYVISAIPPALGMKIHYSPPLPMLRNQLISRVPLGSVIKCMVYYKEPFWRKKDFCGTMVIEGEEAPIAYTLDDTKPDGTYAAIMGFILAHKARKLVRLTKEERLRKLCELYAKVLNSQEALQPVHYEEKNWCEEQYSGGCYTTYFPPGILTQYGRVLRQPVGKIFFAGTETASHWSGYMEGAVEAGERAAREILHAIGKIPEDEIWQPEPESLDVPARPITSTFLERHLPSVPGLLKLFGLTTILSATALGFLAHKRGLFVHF
Description: as §2, §3

protein carbonylation = assay: Protein carbonylation assay, SNP-induced, brain homogenate; format: biochemical, mouse
Description: as §1
The evaluation of protein carbonylation was performed according to a previously established protocol, using freshly prepared brain homogenate diluted at a 1:8 ratio in Tris-HCl buffer. Test compounds (10 μL), ranging in concentrations from 25 to 200 μM, were individually introduced into separate test tubes. Trolox (100 μM) served as the standard antioxidant. The diluted brain homogenate (940 μL) was then added to all tubes, followed by SNP (1 mM) as the inducing oxidative agent (50 μL). The tubes were promptly incubated at 37 °C for 2 h. Following incubation, 2 M HCl was added to blank tubes (200 μL), while 10 mM 2,4-dinitrophenyl-hydrazine (DNPH) solution was added to test tubes (200 μL). The mixture was incubated for 1 h in darkness at room temperature, with intermittent stirring every 15 min to facilitate the color reaction. Subsequently, 500 μL of denaturation buffer, 1.5 mL of ethanol, and 1.5 mL of hexane were added to all tubes, which were then vigorously shaken for 40 s. The tubes were then centrifuged at 900g for 15 min, and the supernatant was carefully decanted. The resulting pellet was washed twice with 1 mL of ethanol/ethyl acetate solution (1:1). After allowing the pellet to dry air for 2 min, it was resuspended in 1 mL of denaturation buffer and subjected to spectrophotometric analysis at 370 nm. The findings were quantified as nmol carbonyl per gram of tissue.

female Swiss mice = system: female Swiss mice; set-up: method as in previously conducted by our research group; details: same methodology layout; ref previously conducted by our research group; cited from earlier work
male Swiss mice [5] = assay: Tail suspension test (TST); format: in vivo, mouse
Description: A behavioral screening was conducted using the three salts to determine their potential antidepressant-like actions (n = 7–9 mice/group).
(§4) A dosage of 5 mg/kg (intragastric route, i.g., by gavage) was administered to all groups receiving the salts. […] The TST was conducted 30 min following drug administration, with the OFT being performed 4 min prior to the TST.
(§5) Following the selection of the most promising salt during screening (Compound 3B), an analysis of the compound’s time-response curve was conducted in the mouse TST. For this purpose, the animals were divided into five groups: (I) control (water; i.g.), (II) the group receiving compound 3B 15 min prior to TST, (III) the group receiving compound 3B 30 min before TST, (IV) the group receiving compound 3B 60 min before TST, and (V) the group receiving compound 3B 120 min before TST. The dosage of salt was standardized at 5 mg/kg (i.g). OFT was conducted 4 min prior to the TST.
(§6) After choosing a suitable preadministration time, the dose–response curve of the compound at this fixed time was analyzed. The animals were categorized into […]: I) a control group (administered water; i.g.) and groups II, III, IV and V) receiving compound 3B at doses of 0.5 mg/kg, 1 mg/kg, 2.5 mg/kg, and 5 mg/kg (i.g.), respectively. […] Thirty minutes postadministration, the animals underwent the TST. Four minutes prior to the TST, they underwent the OFT.
This test aims to assess depressive-like behavior and antidepressant-like action of therapies by measuring immobility. […] The test was conducted using a mouse suspension box made of wood, measuring 50 cm × 21 cm × 21 cm, designed to prevent any visual or physical interaction among the animals. A suspension bar was positioned atop the box, and the mouse’s tail was affixed to the bar using adhesive tape. The test duration was 6 min, during which the animal’s latency to the first immobility episode and the total duration of immobility (sec) were assessed.

male Swiss mice [6] = assay: Open field test (OFT) before the TST; format: in vivo, mouse; details: 3B 0.5–5 mg/kg i.g.; fluoxetine 20 mg/kg i.p.
Description: as §4, §5, §6
The aim of this behavioral test is to assess the locomotion and exploration behavior of the animals using an open field apparatus measuring 30 cm × 30 cm × 15 cm, constructed from plywood with a floor divided into nine quadrants, facilitating free movement for the animals. During the OFT, the animals were positioned in the center of the apparatus and subjected to a 5 min testing period, following the protocol outlined in literature. The number of quadrant crossings and rearings was recorded and quantified during testing phase.

rodent = details: literature value, cited from earlier work
[7] = salts 5 mg/kg i.g., fluoxetine 20 mg/kg i.p., 30 min before test

c1ccc([Se]Cc2ccccn2)cc1 [2-((phenylselanyl)methyl)pyridine, reference compound]
Concentrations effective in reversing SNP-induced oxidative damage (TBARS) ([1]; mouse brain homogenate): 500 µM

c1ccc([Se]c2c(-c3ccccc3)cn3ccccc23)cc1 [2-phenyl-1-(phenylselanyl)indolizine]
Effective dose (previously studied related molecule) [2]: ≥ 10 mg/kg

c1ccc([Se][Se]c2ccccc2)cc1 [(PhSe)2, diphenyl diselenide]
Solubility in isotonic phosphate buffer [3]: poor solubility in isotonic phosphate buffer
Selenium levels in plasma [4]: very low levels of selenium in plasma

O=C(C[n+]1ccccc1C[Se]c1ccccc1)c1ccc(Cl)cc1.[Br-] [Compound 3C, 1-(2-(4-chlorophenyl)-2-oxoethyl)-2-((phenylselanyl)methyl)pyridin-1-ium bromide]
IC50 (MAO-A): 77.6 µM
Concentrations with significant inhibition of MAO-A activity (MAO-A; tested 25–200 μM, Dunnett vs control): ≥ 50 µM
IC50 (MAO-B): 125 µM
IC50 ([1]; mouse brain homogenate, SNP-induced): 102 µM
Concentrations effective in reversing SNP-induced oxidative damage (TBARS) ([1]; mouse brain homogenate): 50 to 500 µM
IC50 (protein carbonylation; mouse brain homogenate, SNP-induced, 25–200 μM): 111 µM
Signs of toxicity in acute oral toxicity study (female Swiss mice): no signs of toxicity

CNCCC(Oc1ccc(C(F)(F)F)cc1)c1ccccc1 (stereo not drawn) [Fluoxetine, reference compound]
TST immobility time, positive control in dose–response experiment (male Swiss mice [5]; 20 mg/kg i.p., 30 min): effectively reduced the immobility time
TST latency time, positive control in dose–response experiment (male Swiss mice [5]; 20 mg/kg i.p., 30 min): as also observed in the fluoxetine group
TST latency time to first immobility episode, screening (male Swiss mice [5]; [7]): significantly increased latency time
TST total immobility time, screening (male Swiss mice [5]; [7]): shorter total immobility times
OFT number of rearings, dose–response experiment (male Swiss mice [6]): decreased rearings
Reduction in rodent locomotor activity (rodent; 30 mg/kg): 89%

Cc1c(C)c2c(c(C)c1O)CCC(C)(C(=O)O)O2 (stereo not drawn) [Trolox, reference compound]
Effect of positive control on SNP-induced TBARS ([1]; 100 μM): effectively reversed oxidative damage
Effect of positive control on protein carbonylation (protein carbonylation; 100 μM): effective

CN(C)CC/C=C1\c2ccccc2CSc2ccccc21 [dothiepin]
Reduction in rodent locomotor activity (rodent; 10 mg/kg): 73%

COc1ccc(C(CN(C)C)C2(O)CCCCC2)cc1 (stereo not drawn) [venlafaxine]
Reduction in rodent locomotor activity (rodent; 50 mg/kg): 62%

Reference: publication PMC12498411, “Antidepressant-like Properties of a Selenium-Containing Pyridinium Salt Explored through In Vitro, In Vivo, and In Silico Approaches” (ACS Chemical Neuroscience, 2025)
